Reference: PubChem BioAssay AID248 (DTP/NCI, 2004)
“And” between values parts separate entries of the source, which are not always exact repeats. Equal entries are not always repeated. Toxic doses and inconclusive results are not listed. Cut-off read from the data, not from the text of the source: active = T/C of 150% or more; inactive = T/C below 125%.

Test system: L1210 leukemia ip in BDF1 mice, survival T/C
Assay: NCI In Vivo Anticancer Drug Screen. Data for tumor model L1210 Leukemia (intraperitoneal) in B6D2F1 (BDF1) mice
Settings: endpoint: mean survival time, higher = longer survival
Summary of the method: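 Mice bearing the transplanted tumor received compound or vehicle. Survival of the treated group was divided by that of the vehicle-treated control group to give the ratio.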

[1] = dose: 100.0 mg/kg/injection, schedule: Q01DX009 (ip), vehicle: Klucel (hydroxypropylcellulose) (HPC)
[2] = dose: 100.0 mg/kg/injection, schedule: Q04DX003 (ip), vehicle: Klucel (hydroxypropylcellulose) (HPC)
[3] = dose: 100.0 mg/kg/injection, schedule: Q04DX002 (ip), vehicle: Klucel (hydroxypropylcellulose) (HPC)
[4] = dose: 200.0 mg/kg/injection, schedule: Q04DX002 (ip), vehicle: Klucel (hydroxypropylcellulose) (HPC)
[5] = dose: 200.0 mg/kg/injection, schedule: Q04DX003 (ip), vehicle: Klucel (hydroxypropylcellulose) (HPC)
[6] = dose: 400.0 mg/kg/injection, schedule: Q01DX009 (ip), vehicle: Klucel (hydroxypropylcellulose) (HPC)
[7] = dose: 400.0 mg/kg/injection, schedule: Q04DX003 (ip), vehicle: Klucel (hydroxypropylcellulose) (HPC)

Measured: T/C

O=S(=O)(OCCCC1CC2C=CC1C2)c1ccc(Br)cc1 (centres undefined)
inactive: dose: 75.0 mg/kg/injection, schedule: Q01DX001 (ip), vehicle: carboxymethylcellulose (CMC) 104 % of control | dose: 75.0 mg/kg/injection, schedule: Q04DX003 (ip), vehicle: carboxymethylcellulose (CMC) 89 % of control | dose: 150.0 mg/kg/injection, schedule: Q01DX001 (ip), vehicle: carboxymethylcellulose (CMC) 91 % of control | dose: 150.0 mg/kg/injection, schedule: Q04DX003 (ip), vehicle: carboxymethylcellulose (CMC) 100 % of control | dose: 300.0 mg/kg/injection, schedule: Q04DX003 (ip), vehicle: carboxymethylcellulose (CMC) 98 % of control

COc1ccc2c3c1OC1C4(CCC5C(C2)N(CC2CC2)CCC351)OCCO4 (centres undefined)
inactive: dose: 12.5 mg/kg/injection, schedule: Q04DX003 (ip), vehicle: Klucel (hydroxypropylcellulose) (HPC) 101 % of control | dose: 25.0 mg/kg/injection, schedule: Q01DX009 (ip), vehicle: Klucel (hydroxypropylcellulose) (HPC) 95 % of control | dose: 25.0 mg/kg/injection, schedule: Q04DX003 (ip), vehicle: Klucel (hydroxypropylcellulose) (HPC) 103 % of control | dose: 50.0 mg/kg/injection, schedule: Q01DX009 (ip), vehicle: Klucel (hydroxypropylcellulose) (HPC) 94 % of control | dose: 50.0 mg/kg/injection, schedule: Q04DX003 (ip), vehicle: Klucel (hydroxypropylcellulose) (HPC) 101 % of control | [1] 91 % of control | [2] 101 % of control

CCOc1ccc(-c2cc(=O)c3c(OC)c(OC)c(OC)c(OC)c3o2)cc1
inactive: dose: 100.0 mg/kg/injection, schedule: Q01DX001 (sc), vehicle: steriod suspending solution 111 % of control | dose: 200.0 mg/kg/injection, schedule: Q01DX001 (sc), vehicle: steriod suspending solution 96 % of control | dose: 400.0 mg/kg/injection, schedule: Q01DX001 (sc), vehicle: steriod suspending solution 96 % of control

O/N=C1\CCc2ccccc21
inactive: dose: 50.0 mg/kg/injection, schedule: Q04DX002 (ip), vehicle: Klucel (hydroxypropylcellulose) (HPC) 100 % of control | [3] 92 % of control | [4] 96 % of control

CC(=O)NC(CSSCC(NC(C)=O)C(=O)OC(C)=O)C(=O)O (centres undefined)
inactive: dose: 25.0 mg/kg/injection, schedule: Q01DX001 (ip), vehicle: saline 102 % of control | dose: 50.0 mg/kg/injection, schedule: Q01DX001 (ip), vehicle: saline 96 % of control | dose: 100.0 mg/kg/injection, schedule: Q01DX001 (ip), vehicle: saline 93 % of control

Cc1ccc(C)c(NC(=O)Oc2ccc3ccccc3c2)c1
inactive: [1] 93 % of control | [2] 107 % of control | [5] 107 % of control | [6] 91 % of control | [7] 97 % of control

CCCCN1C(=O)c2ccncc2C1=O
inactive: dose: 100.0 mg/kg/injection, schedule: Q01DX001 (ip), vehicle: saline with Tween-80 95 % of control | dose: 100.0 mg/kg/injection, schedule: Q04DX003 (ip), vehicle: saline with Tween-80 98 % of control | dose: 200.0 mg/kg/injection, schedule: Q01DX001 (ip), vehicle: saline with Tween-80 98 % of control | dose: 200.0 mg/kg/injection, schedule: Q04DX003 (ip), vehicle: saline with Tween-80 103 % of control | dose: 400.0 mg/kg/injection, schedule: Q01DX001 (ip), vehicle: saline with Tween-80 111 % of control | dose: 400.0 mg/kg/injection, schedule: Q04DX003 (ip), vehicle: saline with Tween-80 100 % of control

COc1ccc(NC(=O)Oc2cccc(OC(=O)c3ccccc3)c2)cc1
inactive: dose: 100.0 mg/kg/injection, schedule: Q01DX001 (ip), vehicle: Klucel (hydroxypropylcellulose) (HPC) 96 % of control | [1] 104 % of control and 106 % of control | [3] 93 % of control and 103 % of control and 106 % of control | [2] 98 % of control | dose: 200.0 mg/kg/injection, schedule: Q01DX001 (ip), vehicle: Klucel (hydroxypropylcellulose) (HPC) 93 % of control | dose: 200.0 mg/kg/injection, schedule: Q01DX009 (ip), vehicle: Klucel (hydroxypropylcellulose) (HPC) 100 % of control and 103 % of control | [4] 99 % of control and 100 % of control and 103 % of control | [5] 98 % of control | dose: 400.0 mg/kg/injection, schedule: Q01DX001 (ip), vehicle: Klucel (hydroxypropylcellulose) (HPC) 93 % of control | [6] 97 % of control and 98 % of control | dose: 400.0 mg/kg/injection, schedule: Q04DX002 (ip), vehicle: Klucel (hydroxypropylcellulose) (HPC) 93 % of control and 97 % of control and 99 % of control | [7] 91 % of control
